Experimental findings from ChEMBL document CHEMBL1201862, “PubChem BioAssay data set” (2004) are described below.

Test systems include RPMI-8226; SNB-75; OVCAR-5; Malme-3M; HOP-92; OVCAR-4; LOX IMVI; NCI-H226; OVCAR-8; SK-MEL-5; DMS-114; SK-MEL-28; HOP-62; HCC 2998; U-251; UACC-62; HCT-15; OVCAR-3; PC-3; BT-549.
Common to all, as to assay: growth of human tumour cells (NCI), 48 h

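Five compound concentrations were applied to cells in 96-well plates for 48 hours; endpoints were derived by simple linear interpolation of the resulting dose-response curve. GI50: concentration for 50% inhibition of growth.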 Calls of active or inactive are those of the source. Rule as the data show it: active = GI50 up to about 1.1 µM and inactive = higher. Some results are limits rather than exact numbers.

With `C[C@H]1C=C2C(=O)O[C@H]3CC[C@@H](C1)[C@@]23O`, the GI50 in the assay on RPMI-8226 was 29.6 µM (inactive); with SNB-75 it was 5.87 µM (inactive); in the assay on OVCAR-5 it was 4.33 µM (inactive); in the assay with Malme-3M, 7.03 µM (inactive); with HOP-92, 5.25 µM (inactive); with OVCAR-4, 10.3 µM (inactive). Moreover, the GI50 is 2.55 µM (inactive) in the assay with LOX IMVI; 12.5 µM (inactive) in the assay on NCI-H226; 3.39 µM (inactive) in the assay on OVCAR-8; 4.13 µM (inactive) in the assay on SK-MEL-5; 2.62 µM (inactive) in the assay with DMS-114; 4.07 µM (inactive) in the assay on SK-MEL-28. Further, the GI50 is > 10 µM (inactive) in the assay with HOP-62; 13.8 µM (inactive) in the assay with HCC 2998; 6.44 µM (inactive) with U-251; 3.18 µM (inactive) in the assay with UACC-62; 3.65 µM with HCT-15; 5.38 µM (inactive) in the assay with OVCAR-3.

`CCCCc1c2c(nc3c1CCc1cc(C=O)c(N)nc1-3)/C(=C/c1ccccc1)CCC2`: the GI50 with RPMI-8226, in the assay on SNB-75, in the assay with OVCAR-5, in the assay on Malme-3M, with HOP-92 and with OVCAR-4 was > 100 µM (inactive) throughout. For the same compound, the GI50 with LOX IMVI was > 100 µM (inactive); with NCI-H226, > 100 µM (inactive); in the assay with OVCAR-8 it was 46.2 µM (inactive); in the assay with SK-MEL-5, > 100 µM (inactive); with DMS-114, > 100 µM (inactive); in the assay with SK-MEL-28, > 100 µM (inactive). Also, the GI50 with HOP-62 was > 100 µM (inactive); in the assay with HCC 2998, 29.9 µM (inactive); in the assay with U-251, > 100 µM (inactive); with UACC-62, > 100 µM (inactive); in the assay with HCT-15, 86.3 µM; in the assay on OVCAR-3 it was > 100 µM (inactive).

Consider `Cc1ccc(Sc2ccccc2N)cc1`, for which the GI50 is 19.3 µM (inactive) in the assay with RPMI-8226; 44.8 µM (inactive) in the assay with SNB-75; > 100 µM (inactive) with OVCAR-5; 46.5 µM (inactive) in the assay with Malme-3M; 22.7 µM (inactive) in the assay on HOP-92; 46.9 µM (inactive) with OVCAR-4. Besides, the GI50 was 36.8 µM (inactive) in the assay with LOX IMVI; 17.5 µM (inactive) in the assay on NCI-H226; 52.2 µM (inactive) in the assay on OVCAR-8; 20.7 µM (inactive) in the assay with SK-MEL-5; 43.4 µM (inactive) with DMS-114; 67 µM (inactive) in the assay on SK-MEL-28. In addition, the GI50 in the assay with HOP-62 is 6.53 µM (inactive); in the assay on HCC 2998 it was 40.8 µM (inactive); in the assay with U-251, 67.3 µM (inactive); in the assay on UACC-62, 53.2 µM (inactive); in the assay on HCT-15, 37.8 µM; in the assay on OVCAR-3, 44.7 µM (inactive).

As for `N#CC(C(=O)C(=O)Nc1c(Cl)cccc1Cl)c1ccccc1` (stereo not drawn), the GI50 in the assay with RPMI-8226 was > 10 µM (inactive); with SNB-75, > 10 µM (inactive); in the assay with OVCAR-5, 0.906 µM (active); in the assay on Malme-3M, > 10 µM (inactive); in the assay with HOP-92, > 10 µM (inactive); in the assay with OVCAR-4 it was > 10 µM (inactive). The GI50 is 0.356 µM (active) in the assay with LOX IMVI; > 10 µM (inactive) in the assay with NCI-H226; > 100 µM (inactive) in the assay with OVCAR-8; > 10 µM (inactive) with SK-MEL-5; > 10 µM (inactive) in the assay on DMS-114; > 10 µM (inactive) in the assay on SK-MEL-28. The GI50 in the assay on HOP-62 is > 10 µM (inactive); in the assay with HCC 2998 it was > 10 µM (inactive); with U-251, > 10 µM (inactive); in the assay on UACC-62 it was > 10 µM (inactive); with HCT-15, over 10 µM; with OVCAR-3, > 10 µM (inactive).

For `CC(O)C(NC(=O)c1ccccc1)C(=O)N(Cc1ccccc1)Cc1ccccc1` (stereo not drawn), the GI50 in the assay with RPMI-8226 was 28.9 µM (inactive); with SNB-75, 47.5 µM (inactive); in the assay with OVCAR-5, > 100 µM (inactive); with Malme-3M, > 100 µM (inactive); in the assay on HOP-92, 75.9 µM (inactive); in the assay with OVCAR-4 it was > 100 µM (inactive). Besides, the GI50 in the assay on LOX IMVI is > 100 µM (inactive); in the assay with NCI-H226, > 100 µM (inactive); in the assay with OVCAR-8 it was > 100 µM (inactive); in the assay with SK-MEL-5, 60 µM (inactive); in the assay with DMS-114 it was > 100 µM (inactive); in the assay with SK-MEL-28, > 100 µM (inactive). In addition, the GI50 with HOP-62 is > 100 µM (inactive); in the assay with HCC 2998, > 100 µM (inactive); with U-251, > 100 µM (inactive); in the assay with UACC-62 it was > 100 µM (inactive); in the assay on HCT-15, over 100 µM; in the assay with OVCAR-3 it was > 100 µM (inactive).

Turning to `CCC12C=CCN3CCC4(C(=C(C(=O)OC)[C@@H]1O)Nc1ccccc14)C32` (stereo partly drawn), the GI50 in the assay on RPMI-8226 is 2.17 µM (inactive); in the assay with SNB-75 it was 1.9 µM (inactive); in the assay on OVCAR-5, 2.44 µM (inactive); in the assay on Malme-3M, 1.74 µM (inactive); in the assay on HOP-92, 1.6 µM (inactive); with OVCAR-4, 2.12 µM (inactive). In addition, the GI50 in the assay on LOX IMVI was 1.64 µM (inactive); in the assay with NCI-H226, 1.26 µM (inactive); in the assay on OVCAR-8, 2.04 µM (inactive); with SK-MEL-5 it was 1.79 µM (inactive); in the assay on DMS-114, 1.69 µM (inactive); with SK-MEL-28, 1.95 µM (inactive). Moreover, the GI50 is 2.12 µM (inactive) with HOP-62; 1.63 µM (inactive) with HCC 2998; 2.24 µM (inactive) in the assay with U-251; 1.77 µM (inactive) in the assay on UACC-62; 1.57 µM in the assay with HCT-15; 1.99 µM (inactive) in the assay on OVCAR-3.

Turning to `C[S+]([O-])c1cc(=O)c2ccccc2s1` (stereo not drawn), the GI50 with RPMI-8226 is 2.9 µM (inactive); with PC-3 it was 15.5 µM (inactive); in the assay on SNB-75 it was 11.4 µM (inactive); with OVCAR-5 it was 9.42 µM (inactive); in the assay on Malme-3M it was 2.3 µM (inactive); in the assay on HOP-92, 2.94 µM (inactive). Besides, the GI50 in the assay on OVCAR-4 is 3.03 µM (inactive); in the assay on LOX IMVI it was 3.78 µM (inactive); in the assay on NCI-H226, 16.9 µM (inactive); with OVCAR-8, 3.6 µM (inactive); in the assay with SK-MEL-5, 10.6 µM (inactive); in the assay on DMS-114 it was 4.2 µM (inactive). Also, the GI50 in the assay with SK-MEL-28 is 4.2 µM (inactive); in the assay on HOP-62, 27 µM (inactive); in the assay on HCC 2998, 7.64 µM (inactive); in the assay with U-251, 12.8 µM (inactive); with UACC-62, 7.31 µM (inactive); in the assay on HCT-15, 3.03 µM. In addition, the GI50 with BT-549 is 14.5 µM (inactive); in the assay with OVCAR-3 it was 2.42 µM (inactive).

For `Cc1c(Cl)cccc1NC(=O)C(=O)c1c(O)c2ccc(O)cc2oc1=O`, the GI50 in the assay with SNB-75, in the assay with OVCAR-5, with Malme-3M, in the assay with HOP-92, with OVCAR-4 and with LOX IMVI was > 100 µM (inactive) throughout. In addition, the GI50 in the assay with NCI-H226, in the assay with OVCAR-8, in the assay with SK-MEL-5, in the assay on DMS-114, with SK-MEL-28 and in the assay on HOP-62 was > 100 µM (inactive) throughout. In addition, the GI50 with HCC 2998 was > 100 µM (inactive); in the assay with U-251, > 100 µM (inactive); with UACC-62, > 100 µM (inactive); in the assay with HCT-15 it was over 100 µM; with OVCAR-3 it was > 100 µM (inactive).

For the compound `COc1cc2c(c(O)c1C)C(=O)C(Cl)=CC2=O`, the GI50 in the assay with RPMI-8226 was 6.35 µM (inactive); in the assay on PC-3, 15.2 µM (inactive); in the assay with SNB-75 it was 16.4 µM (inactive); with OVCAR-5 it was 28.5 µM (inactive); with Malme-3M, 4.21 µM (inactive); in the assay on HOP-92 it was 4.71 µM (inactive). For the same compound, the GI50 with OVCAR-4 was 11.8 µM (inactive); in the assay on LOX IMVI, 9.53 µM (inactive); with NCI-H226, 15.1 µM (inactive); with OVCAR-8, 18.8 µM (inactive); in the assay with SK-MEL-5, 8.69 µM (inactive); in the assay on DMS-114, 16.6 µM (inactive). Besides, the GI50 with SK-MEL-28 was 18.8 µM (inactive); with HOP-62, 43.2 µM (inactive); in the assay on HCC 2998, 22.3 µM (inactive); with U-251, 21.4 µM (inactive); with UACC-62 it was 7.23 µM (inactive); in the assay with HCT-15 it was 11.5 µM. For the same compound, the GI50 in the assay on BT-549 was 8.3 µM (inactive); with OVCAR-3, 9.91 µM (inactive).

As to `CC(=O)OCSc1ncnc2c1ncn2CN1CCOCC1`, the GI50 in the assay with RPMI-8226 was 4.44 µM (inactive); in the assay on SNB-75, 13.2 µM (inactive); with OVCAR-5, 18.5 µM (inactive); with Malme-3M, 24.9 µM (inactive); in the assay with HOP-92, 1.08 µM (active); with OVCAR-4, 23 µM (inactive). Besides, the GI50 is 2.03 µM (inactive) in the assay with LOX IMVI; > 100 µM (inactive) in the assay with NCI-H226; 28.9 µM (inactive) in the assay with OVCAR-8; 49.4 µM (inactive) in the assay on SK-MEL-5; 6.53 µM (inactive) with DMS-114; > 100 µM (inactive) with SK-MEL-28. The GI50 in the assay with HOP-62 was 10 µM (inactive); in the assay with HCC 2998 it was 6.46 µM (inactive); in the assay with U-251, 47.8 µM (inactive); in the assay on UACC-62, 4.81 µM (inactive); in the assay on HCT-15 it was 21.1 µM; in the assay with OVCAR-3, 7.23 µM (inactive).
